Measured values taken from publication PMC4515083, “Selective Targeting of the TPX2 Site of Importin-α Using Fragment-Based Ligand Design” (Chemmedchem, 2015).

Target: T1, ΔIBB-importin-α (importin-α1, KPNA2) (Mus musculus, UniProt P52293)
T1 construct: modified pET-30a with TEV-cleavable His6/S-tag, tag cleaved; recombinant
Assay: direct ITC
Type: binding
Source text: direct ITC on ΔIBB-importin-α (importin-α1, KPNA2)

Kd [mM]	Structure (SMILES)
4 ± 0.5	NCCCC[C@H](NCc1ccc(-c2cccnc2)cc1)C(N)=O [compound 11]
> 10	NCCCC[C@H](NC(=O)c1ccc(-c2cccnc2)cc1)C(N)=O [compound 14]
3.8 ± 0.4	NCCCC[C@@H](NCc1ccc(-c2cccnc2)cc1)C(N)=O [compound 15]
1.3 ± 0.1	NCCCC[C@H](NCc1cccc(-c2cccnc2)c1)C(N)=O [compound 16]
0.9 ± 0.1	NCCCC[C@H](NCc1ccc(-c2cccnc2)s1)C(N)=O [compound 17]
